21 compounds from ChEMBL document CHEMBL5584345, “Discovery of Novel 2-Aminopyridine-Based and 2-Aminopyrimidine-Based Derivatives as Potent CDK/HDAC Dual Inhibitors for the Treatment of Refractory Solid Tumors and Hematological Malignancies” (J Med Chem, 2024) can be followed below.

Broadly, the IC50 is the concentration needed to halve the response being measured. Usually T/C stands for the result in the treated group divided by that in the control group, in per cent.

The target of one assay is Histone deacetylase 4 (Homo sapiens, UniProt P56524). Briefly: Inhibition of human recombinant HDAC4 using Ac-Leu-Gly-Lys(Tfa)-AMC as substrate incubated for 24 hrs by fluorescence based Envision plate reader analysis.
The target of assay [1] is Cyclin-dependent kinase 7 (Homo sapiens, UniProt P50613).
Description: Inhibition of CDK7 (unknown origin) using ULight 4EBP1 peptide as substrate incubated for 2 hrs in presence of ATP by FRET assay
In assay [2] the test system is MV4-11. Briefly: Antitumor activity against human MV4-11 cells xenografted in female nu/nu mouse assessed as test to control ratio at 50 mg/kg, sc bid for 19 days. To be noted: time 19 day. Format: functional.
The target of assay [3] is Cyclin-dependent kinase 2 (Homo sapiens, UniProt P24941). Briefly: Inhibition of CDK2 (unknown origin) using ULight 4EBP1 peptide as substrate incubated for 2 hrs in presence of ATP by FRET assay.
The target in another assay is Histone deacetylase 3 (Homo sapiens, UniProt O15379).
Assay [4] deals with Cyclin-dependent kinase 9 (Homo sapiens, UniProt P50750).
Description: Inhibition of CDK9 (unknown origin) using ULight 4EBP1 peptide as substrate incubated for 2 hrs in presence of ATP by FRET assay
For a further assay, the target named is Histone deacetylase 1 (Homo sapiens, UniProt Q13547).
Assay [5] has as its target Protein deacetylase HDAC6 (Homo sapiens, UniProt Q9UBN7).
Description: Inhibition of human recombinant HDAC6 using Boc-Lys(eta-acetyl)-AMC as substrate incubated for 24 hrs by fluorescence based Envision plate reader analysis
The next assay concerns KG-1. In words: Antiproliferative activity against human KG-1 cells incubated for 72 hrs by celltiter-glo luminescent assay. The note with it: KG-1, 72 h. Background: Cellular ATP, detected with luciferase, serves as a proxy for viable cell number.
In assay [6] the target is Receptor-type tyrosine-protein kinase FLT3 (Homo sapiens, UniProt P36888). In words: Inhibition of FLT3 (unknown origin).
Assay [7] concerns the target Serine/threonine-protein kinase Chk1 (Homo sapiens, UniProt O14757). Briefly: Inhibition of CHK1 (unknown origin).
For assay [8], the target named is Tyrosine-protein kinase JAK3 (Homo sapiens, UniProt P52333). In words: Inhibition of JAK3 (unknown origin).
The target in assay [9] is Serine/threonine-protein kinase pim-1 (Homo sapiens, UniProt P11309). Briefly: Inhibition of PIM1 (unknown origin).
The target in assay [10] is Epidermal growth factor receptor (Homo sapiens, UniProt P00533). Briefly: Inhibition of EGFR (unknown origin).
For assay [11], the target named is Serine/threonine-protein kinase 17B (Homo sapiens, UniProt O94768). Briefly: Inhibition of DRAK2 (unknown origin).
Assay [12] concerns the target Ribosomal protein S6 kinase beta-1 (Homo sapiens, UniProt P23443). Briefly: Inhibition of P70S6K (unknown origin).
The target in the next assay is Aurora kinase A (Homo sapiens, UniProt O14965). In words: Inhibition of AurorA (unknown origin).
Assay [13] concerns the target Interleukin-1 receptor-associated kinase 4 (Homo sapiens, UniProt Q9NWZ3). In words: Inhibition of IRAK4 (unknown origin).
Assay [14] deals with Tyrosine-protein kinase BTK (Homo sapiens, UniProt Q06187). Briefly: Inhibition of BTK (unknown origin).
Assay [15] deals with MV4-11. In words: Antiproliferative activity against human MV4-11 cells incubated for 72 hrs by celltiter-glo luminescent assay. To be noted: MV4-11, 72 h.
The next assay has as its system CESS. In words: Antiproliferative activity against human CESS cells incubated for 72 hrs by celltiter-glo luminescent assay.
The subject of the next assay is Rec1. In words: Antiproliferative activity against human REC1 cells incubated for 72 hrs by celltiter-glo luminescent assay. To be noted: Rec1, 72 h.
In the next assay the test system is PC-9. Briefly: Antiproliferative activity against human PC-9 cells incubated for 72 hrs by celltiter-glo luminescent assay. To be noted: PC-9, 72 h.
The subject of another assay is HT-29. In words: Antiproliferative activity against human HT-29 cells incubated for 72 hrs by celltiter-glo luminescent assay. The note with it: HT-29, 72 h.
The subject of the next assay is A549. Briefly: Antiproliferative activity against human A549 cells incubated for 72 hrs by celltiter-glo luminescent assay. Format: functional, cell-based. The note with it: A549, 72 h.

Sequence of Cyclin-dependent kinase 7 (P50613 whole entry): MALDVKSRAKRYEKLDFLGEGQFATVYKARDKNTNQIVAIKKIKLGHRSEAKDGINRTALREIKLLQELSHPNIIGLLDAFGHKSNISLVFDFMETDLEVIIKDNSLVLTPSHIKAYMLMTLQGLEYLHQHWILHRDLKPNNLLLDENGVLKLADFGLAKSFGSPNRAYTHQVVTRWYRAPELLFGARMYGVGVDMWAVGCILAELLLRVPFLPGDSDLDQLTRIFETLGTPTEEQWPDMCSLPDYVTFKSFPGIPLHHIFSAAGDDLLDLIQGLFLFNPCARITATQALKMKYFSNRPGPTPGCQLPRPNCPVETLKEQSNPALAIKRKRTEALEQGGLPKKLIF
Sequence of Cyclin-dependent kinase 9 (P50750 whole entry): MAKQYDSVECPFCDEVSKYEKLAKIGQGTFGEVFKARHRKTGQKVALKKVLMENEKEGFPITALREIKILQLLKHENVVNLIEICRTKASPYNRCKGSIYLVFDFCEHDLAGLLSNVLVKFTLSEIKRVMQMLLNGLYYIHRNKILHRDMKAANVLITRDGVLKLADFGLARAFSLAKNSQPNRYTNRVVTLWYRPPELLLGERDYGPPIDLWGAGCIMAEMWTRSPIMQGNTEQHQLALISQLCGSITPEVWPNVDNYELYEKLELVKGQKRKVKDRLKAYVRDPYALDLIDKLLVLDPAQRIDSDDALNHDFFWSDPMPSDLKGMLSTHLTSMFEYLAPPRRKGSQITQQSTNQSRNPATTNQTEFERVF
Sequence of Histone deacetylase 4 (P56524 whole entry): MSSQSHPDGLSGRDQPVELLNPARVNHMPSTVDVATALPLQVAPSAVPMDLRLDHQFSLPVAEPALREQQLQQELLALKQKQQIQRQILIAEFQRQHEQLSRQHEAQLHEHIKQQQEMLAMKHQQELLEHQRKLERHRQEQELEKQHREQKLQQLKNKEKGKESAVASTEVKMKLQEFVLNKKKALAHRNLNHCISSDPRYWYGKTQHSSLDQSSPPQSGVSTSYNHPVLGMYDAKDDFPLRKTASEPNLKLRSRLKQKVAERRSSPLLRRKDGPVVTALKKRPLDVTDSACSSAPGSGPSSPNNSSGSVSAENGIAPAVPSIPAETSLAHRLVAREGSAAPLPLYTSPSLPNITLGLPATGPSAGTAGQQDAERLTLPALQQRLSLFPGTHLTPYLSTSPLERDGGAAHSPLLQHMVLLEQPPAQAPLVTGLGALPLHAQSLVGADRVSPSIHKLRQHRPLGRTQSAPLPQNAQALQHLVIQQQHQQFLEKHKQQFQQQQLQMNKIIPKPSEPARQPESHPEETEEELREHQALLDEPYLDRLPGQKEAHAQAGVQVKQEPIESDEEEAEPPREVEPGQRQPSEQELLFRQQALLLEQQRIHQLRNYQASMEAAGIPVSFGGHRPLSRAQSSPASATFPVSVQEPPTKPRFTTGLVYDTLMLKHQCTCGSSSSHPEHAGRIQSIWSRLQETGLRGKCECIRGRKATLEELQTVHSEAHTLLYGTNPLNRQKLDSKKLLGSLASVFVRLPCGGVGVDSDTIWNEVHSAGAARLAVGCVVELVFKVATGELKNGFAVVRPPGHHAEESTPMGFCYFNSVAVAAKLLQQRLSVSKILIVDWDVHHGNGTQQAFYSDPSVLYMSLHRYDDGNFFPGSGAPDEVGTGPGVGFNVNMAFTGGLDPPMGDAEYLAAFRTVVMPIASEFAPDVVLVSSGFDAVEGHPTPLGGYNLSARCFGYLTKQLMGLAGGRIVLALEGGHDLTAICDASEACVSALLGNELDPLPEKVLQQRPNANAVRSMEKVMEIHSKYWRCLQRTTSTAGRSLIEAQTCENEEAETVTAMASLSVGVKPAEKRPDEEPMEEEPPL
Sequence of Ribosomal protein S6 kinase beta-1 (P23443 whole entry): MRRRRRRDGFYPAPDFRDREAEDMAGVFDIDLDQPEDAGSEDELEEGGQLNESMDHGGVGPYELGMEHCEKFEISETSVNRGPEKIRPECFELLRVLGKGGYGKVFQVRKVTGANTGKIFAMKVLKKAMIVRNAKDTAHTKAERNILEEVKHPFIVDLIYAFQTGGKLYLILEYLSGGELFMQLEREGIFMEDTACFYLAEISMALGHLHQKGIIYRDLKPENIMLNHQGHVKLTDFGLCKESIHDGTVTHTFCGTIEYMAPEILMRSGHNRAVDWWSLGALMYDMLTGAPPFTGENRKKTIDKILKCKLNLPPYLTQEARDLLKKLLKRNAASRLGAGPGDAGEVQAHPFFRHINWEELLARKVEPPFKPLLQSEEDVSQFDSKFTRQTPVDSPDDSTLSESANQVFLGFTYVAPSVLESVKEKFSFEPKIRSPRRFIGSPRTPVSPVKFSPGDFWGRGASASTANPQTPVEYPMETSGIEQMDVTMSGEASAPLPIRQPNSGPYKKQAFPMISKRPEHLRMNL
Sequence of Serine/threonine-protein kinase pim-1 (P11309 whole entry): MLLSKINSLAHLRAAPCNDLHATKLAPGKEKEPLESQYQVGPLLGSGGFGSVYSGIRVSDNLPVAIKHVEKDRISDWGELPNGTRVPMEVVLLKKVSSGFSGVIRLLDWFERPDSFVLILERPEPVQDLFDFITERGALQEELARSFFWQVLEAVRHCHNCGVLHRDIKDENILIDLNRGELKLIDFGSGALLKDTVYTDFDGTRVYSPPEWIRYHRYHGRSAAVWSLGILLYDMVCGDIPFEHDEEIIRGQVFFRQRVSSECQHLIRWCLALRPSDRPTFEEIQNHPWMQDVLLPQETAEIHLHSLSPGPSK
Sequence of Receptor-type tyrosine-protein kinase FLT3 (P36888 whole entry): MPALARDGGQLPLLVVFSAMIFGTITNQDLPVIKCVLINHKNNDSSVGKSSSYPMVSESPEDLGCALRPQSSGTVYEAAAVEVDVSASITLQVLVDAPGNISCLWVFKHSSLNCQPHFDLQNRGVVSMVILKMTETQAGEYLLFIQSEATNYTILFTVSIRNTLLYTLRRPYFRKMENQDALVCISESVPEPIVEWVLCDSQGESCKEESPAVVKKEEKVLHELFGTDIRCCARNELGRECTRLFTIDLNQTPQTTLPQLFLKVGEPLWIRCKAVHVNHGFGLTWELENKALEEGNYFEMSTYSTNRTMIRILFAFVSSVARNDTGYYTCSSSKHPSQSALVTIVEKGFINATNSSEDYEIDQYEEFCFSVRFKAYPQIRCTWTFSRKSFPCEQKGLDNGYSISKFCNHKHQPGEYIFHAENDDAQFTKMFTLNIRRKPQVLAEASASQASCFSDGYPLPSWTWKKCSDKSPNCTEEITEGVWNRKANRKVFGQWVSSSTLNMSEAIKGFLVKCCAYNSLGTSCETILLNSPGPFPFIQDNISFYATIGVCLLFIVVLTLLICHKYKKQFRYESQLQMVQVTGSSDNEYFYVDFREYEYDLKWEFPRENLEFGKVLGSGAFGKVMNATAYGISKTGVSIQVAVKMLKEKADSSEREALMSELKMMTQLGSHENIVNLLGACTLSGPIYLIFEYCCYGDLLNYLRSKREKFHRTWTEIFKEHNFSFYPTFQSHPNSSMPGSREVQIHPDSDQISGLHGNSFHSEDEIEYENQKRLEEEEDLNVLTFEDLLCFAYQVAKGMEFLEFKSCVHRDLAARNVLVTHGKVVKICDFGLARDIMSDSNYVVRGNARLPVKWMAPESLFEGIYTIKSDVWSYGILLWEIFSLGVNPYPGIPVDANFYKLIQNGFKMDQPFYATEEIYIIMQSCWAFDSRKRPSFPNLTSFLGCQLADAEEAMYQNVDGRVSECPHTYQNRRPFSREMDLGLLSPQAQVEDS
Sequence of Tyrosine-protein kinase JAK3 (P52333 whole entry): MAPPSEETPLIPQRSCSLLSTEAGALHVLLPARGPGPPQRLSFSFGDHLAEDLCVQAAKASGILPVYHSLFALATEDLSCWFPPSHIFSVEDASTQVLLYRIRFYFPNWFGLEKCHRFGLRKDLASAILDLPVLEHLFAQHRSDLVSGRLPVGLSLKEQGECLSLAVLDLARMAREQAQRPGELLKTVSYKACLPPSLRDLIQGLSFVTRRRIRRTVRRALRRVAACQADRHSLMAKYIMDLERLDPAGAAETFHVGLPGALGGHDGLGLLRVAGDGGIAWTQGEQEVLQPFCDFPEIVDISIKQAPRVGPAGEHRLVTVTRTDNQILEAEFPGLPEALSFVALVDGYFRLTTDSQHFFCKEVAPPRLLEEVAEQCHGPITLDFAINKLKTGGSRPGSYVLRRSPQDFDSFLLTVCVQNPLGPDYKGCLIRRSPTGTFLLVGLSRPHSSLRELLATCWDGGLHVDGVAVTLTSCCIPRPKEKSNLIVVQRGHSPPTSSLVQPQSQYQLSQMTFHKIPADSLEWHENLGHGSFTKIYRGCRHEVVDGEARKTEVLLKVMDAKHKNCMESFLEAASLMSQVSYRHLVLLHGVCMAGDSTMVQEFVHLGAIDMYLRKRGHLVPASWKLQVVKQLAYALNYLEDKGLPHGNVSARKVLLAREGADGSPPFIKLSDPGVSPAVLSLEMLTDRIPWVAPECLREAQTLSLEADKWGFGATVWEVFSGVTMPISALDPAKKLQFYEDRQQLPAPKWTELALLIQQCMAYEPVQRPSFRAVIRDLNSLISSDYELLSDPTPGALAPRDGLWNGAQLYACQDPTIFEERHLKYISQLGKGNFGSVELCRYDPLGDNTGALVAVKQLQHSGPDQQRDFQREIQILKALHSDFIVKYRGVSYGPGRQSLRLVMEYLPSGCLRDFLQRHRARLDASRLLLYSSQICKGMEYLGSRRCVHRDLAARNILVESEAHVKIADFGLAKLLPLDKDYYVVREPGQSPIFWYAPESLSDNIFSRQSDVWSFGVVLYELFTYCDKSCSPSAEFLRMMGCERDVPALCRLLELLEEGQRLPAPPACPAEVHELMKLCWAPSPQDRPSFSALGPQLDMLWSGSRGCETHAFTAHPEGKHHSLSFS
Description for Histone deacetylase 1: Inhibition of human recombinant HDAC1 using Ac-Lys-Tyr-Lys(eta-acetyl)-AMC as substrate incubated for 24 hrs by fluorescence based Envision plate reader analysis

With `O=C(CCCCCn1cc(Nc2ncc(Cl)c(-c3cnc4ccccn34)n2)cn1)NO`, the values for the IC50 (at Histone deacetylase 4; in assay [1]) were above 10 µM and 0.566 µM, respectively.

As to `Nc1ccn([C@@H]2O[C@H](CO)[C@@H](O)[C@@H]2O)c(=O)n1` [CYTARABINE], the T/C with MV4-11 [2] came out at 33.41%.

Regarding `N#CC1(CNc2cccc(-c3cc(Nc4cnn(Cc5ccc(C(=O)NO)cc5)c4)ncc3Cl)n2)CCOCC1`, the IC50 on Histone deacetylase 4 was 1.08 µM; in [1] it was above 10 µM.

Regarding `CCCNNC(=O)c1ccc(Cn2cc(Nc3ncc(Cl)c(-c4cnc5ccc(-c6ccccc6)cn45)n3)cn2)cc1`, the IC50 is above 10 µM in assay [3], above 20 µM at Histone deacetylase 4 and above 10 µM in assay [1].

Turning to `N#CC1(CNc2cccc(-c3cc(Nc4cnn(CCCCCCC(=O)NO)c4)ncc3Cl)n2)CCOCC1`, the values for the IC50 (on Histone deacetylase 4; in assay [1]) were 4.4 µM and above 10 µM, respectively.

Turning to `CCCNNC(=O)CCCCCCn1cc(Nc2ncc(Cl)c(-c3cnc4ccccn34)n2)cn1`, the figures for the IC50 (in assay [3]; at Histone deacetylase 4; in assay [1]) were above 10 µM, above 20 µM and above 10 µM, respectively.

Regarding `CCCNNC(=O)CCCCCn1cc(Nc2ncc(Cl)c(-c3cnc4ccccn34)n2)cn1`, the figures for the IC50 (in [3]; at Histone deacetylase 4; in [1]) were above 10 µM, above 20 µM and above 10 µM, respectively.

With `O=C(/C=C/c1ccc(Nc2ncc(Cl)c(OC3CCCCC3)n2)cc1)NO`, the IC50 against Histone deacetylase 3 was 7.21 µM; in assay [4], 7890 nM; on Histone deacetylase 1 it was above 10 µM; in [5], 646 nM.

Turning to `CCCNNC(=O)CCCCCn1cc(Nc2ncc(Cl)c(-c3cnc4ccc(-c5ccccc5)cn34)n2)cn1`, the IC50 at Histone deacetylase 4 was above 20 µM; in assay [1] it was above 10 µM.

In the assay on KG-1, `O=C(CCCCCCC(=O)Nc1ccccc1)NO` [VORINOSTAT] had an IC50 of 790 nM.

For `CCCNNC(=O)c1ccc(Cn2cc(Nc3ncc(Cl)c(-c4cnc5ccccn45)n3)cn2)cc1`, the IC50 was above 20 µM on Histone deacetylase 4; 30.4 nM in assay [6]; above 10 µM in assay [7]; 2380 nM in assay [8]; above 10 µM in assay [9]; above 10 µM in [10]. Moreover, the IC50 in assay [11] was above 10 µM; in assay [12] it was 371 nM; at Aurora kinase A it was above 10 µM; in assay [13] it was above 10 µM; in [14] it was 9.13 µM; in assay [1], 0.973 µM.

Turning to `COc1cc(F)ccc1-c1cc(Nc2cnn(CCCCCC(=O)NO)c2)ncc1F`, the IC50 (at Histone deacetylase 4; in assay [1]) was above 10 µM each time.

Take `COC[C@@H](C)N[C@H]1CC[C@H](Nc2cc(-c3cccc(NCC4(C#N)CCOCC4)n3)c(Cl)cn2)CC1`: the half-inhibitory concentration (IC50) is above 10 µM in assay [3]; 3 nM with MV4-11 [15]; 10 nM in the assay with CESS; 30 nM in the assay on Rec1; 20 nM with KG-1; 30 nM in the assay on PC-9. The half-maximal inhibitory concentration (IC50) is 20 nM with HT-29, 5.78 µM in the assay with A549, 4.1 nM in [4] and above 10 µM in assay [1].

In the case of `N#CC1(CNc2cccc(-c3cc(Nc4cnn(CCCCCCC(=O)Nc5ccccc5N)c4)ncc3Cl)n2)CCOCC1`, the IC50 on Histone deacetylase 4 was above 20 µM; in assay [1], above 10 µM.

With `COc1cc(F)ccc1-c1cc(Nc2cnn(CCCCCCC(=O)NO)c2)ncc1F`, the IC50 (at Histone deacetylase 4; in assay [1]) was above 10 µM throughout.

As for `N#CC1(CNc2cccc(-c3cc(Nc4cnn(CCCCCC(=O)NO)c4)ncc3Cl)n2)CCOCC1`, the concentration for half-maximal inhibition (IC50) is 2.5 µM at Histone deacetylase 4 and above 10 µM in assay [1].

Consider `O=C(CCCCCCn1cc(Nc2ncc(Cl)c(-c3cnc4ccccn34)n2)cn1)NO`, for which the 50% inhibitory concentration (IC50) on Histone deacetylase 4 is above 10 µM; in [1] it was 2.81 µM.

As to `COc1cc(F)ccc1-c1cc(Nc2ccc(NC(=O)CCCCCCC(=O)NO)cc2)ncc1F`, the half-maximal inhibitory concentration (IC50) (at Histone deacetylase 4; in assay [1]) was above 10 µM each time.

For the compound `N#CC1(CNc2cccc(-c3cc(Nc4cnn(Cc5ccc(C(=O)Nc6ccccc6N)cc5)c4)ncc3Cl)n2)CCOCC1`, the 50% inhibitory concentration (IC50) at Histone deacetylase 4 was above 20 µM; in assay [6], above 10000 nM; in assay [7], above 10 µM; in [8], above 10000 nM; in assay [9], above 10 µM; in assay [10], above 10 µM. For the same compound, the concentration for half-maximal inhibition (IC50) in assay [11] is above 10 µM; in [12], above 10000 nM; at Aurora kinase A it was above 10 µM; in assay [13] it was above 10 µM; in [14] it was above 10 µM.

For the compound `COc1cc(F)ccc1-c1cc(Nc2ccc(NC(=O)CCCCCCC(=O)Nc3ccccc3N)cc2)ncc1F`, the IC50 was above 20 µM on Histone deacetylase 4 and above 10 µM in assay [1].

With `COc1cc(F)ccc1-c1cc(Nc2ccc(/C=C/C(=O)Nc3ccccc3N)cc2)ncc1F`, the half-maximal inhibitory concentration (IC50) on Histone deacetylase 3 is 3.55 µM; in assay [4], 68.4 nM; against Histone deacetylase 1, above 20 µM; in assay [5] it was above 20000 nM.
